The record followed here is PubChem BioAssay (NCI).

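Step 1: Grow cells in 96-well plates. Step 2: Expose to compound for 48 hours at 5 concentrations. Step 3: Interpolate endpoints linearly; if unreached, use highest concentration. GI50 is the concentration that inhibits growth by half. The concentration for full growth arrest is given as TGI.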

Among the test systems are KM12 colon; UACC-62 melanoma; SK-MEL-28 melanoma; MDA-MB-435; NCI-H460 lung; SW-620 colon; HL-60(TB) leukemia; M14 melanoma; IGROV1 ovarian; A549 NSCLC.
Experiment in all cases: NCI tumour cell line growth inhibition, 48 h

On to `NC1=NCN(C2OC(CO)C(O)C2O)C(=O)N1` (stereo unspecified), for which the TGI in the experiment with KM12 colon was determined as 674 µM; with UACC-62 melanoma, 241 µM; with SK-MEL-28 melanoma, 1660 µM; with MDA-MB-435, 154 µM; in the experiment with NCI-H460 lung, 294 µM; in the experiment on SW-620 colon, 1340 µM. The TGI in the experiment with HL-60(TB) leukemia came out at 18.4 µM; in the experiment with M14 melanoma it was 405 µM; in the experiment with IGROV1 ovarian, 299 µM; in the experiment with A549 NSCLC it was 1080 µM.
`Nc1ccccc1C#Cc1ccccc1C#Cc1cccs1`: the GI50 in the experiment with KM12 colon was 10.3 µM; with UACC-62 melanoma it was 13.8 µM; with SK-MEL-28 melanoma it was 15.7 µM; with MDA-MB-435, 4.03 µM; in the experiment with NCI-H460 lung it was 37.3 µM; in the experiment on SW-620 colon, 18 µM. The GI50 was 11 µM in the experiment on HL-60(TB) leukemia, 17.4 µM in the experiment with M14 melanoma, 18.4 µM with IGROV1 ovarian and 16.9 µM with A549 NSCLC. In addition, the TGI was 27.7 µM in the experiment on KM12 colon; 28.6 µM with UACC-62 melanoma; 41 µM in the experiment on SK-MEL-28 melanoma; 14.3 µM with MDA-MB-435; over 100 µM with NCI-H460 lung; 41.1 µM with SW-620 colon. In addition, the TGI in the experiment on HL-60(TB) leukemia is over 100 µM; in the experiment on M14 melanoma, 34.1 µM; in the experiment with IGROV1 ovarian it was 90.8 µM; with A549 NSCLC it was over 100 µM.
For `COc1cc2cc(Oc3cccc(NC(=O)Nc4cc(C(F)(F)F)cc(C(F)(F)F)c4)c3)c(C)nc2cc1OC`, the GI50 with KM12 colon is 0.918 µM; in the experiment on UACC-62 melanoma it was 0.561 µM; with SK-MEL-28 melanoma it was 1.19 µM; with MDA-MB-435, 1.8 µM; with NCI-H460 lung, 0.96 µM; in the experiment with SW-620 colon it was 1.94 µM. The GI50 in the experiment on HL-60(TB) leukemia was 1.58 µM; in the experiment on M14 melanoma it was 1 µM; in the experiment on IGROV1 ovarian, 0.509 µM; in the experiment on A549 NSCLC, 1.42 µM. Besides, the TGI in the experiment on KM12 colon is 2.46 µM; with UACC-62 melanoma, 2.09 µM; in the experiment with SK-MEL-28 melanoma, 3.09 µM; with MDA-MB-435, 4.28 µM; in the experiment on NCI-H460 lung, 2.72 µM; in the experiment on SW-620 colon, 5.71 µM. Also, the TGI in the experiment on HL-60(TB) leukemia was determined as 4.37 µM; in the experiment on M14 melanoma, 2.88 µM; with IGROV1 ovarian, 2.3 µM; in the experiment with A549 NSCLC it was 4.75 µM.
For `CCOc1ccc2cc(-c3nn(CC4CCNCC4)c4ncnc(N)c34)ccc2c1`, the GI50 in the experiment with KM12 colon is 1.64 µM; in the experiment on UACC-62 melanoma it was 16.9 µM; with SK-MEL-28 melanoma, 16.1 µM; in the experiment with MDA-MB-435, 13.1 µM; with NCI-H460 lung, 16.8 µM; with SW-620 colon it was 15.2 µM. Moreover, the GI50 in the experiment with HL-60(TB) leukemia is 14.7 µM; with M14 melanoma, 14.1 µM; with IGROV1 ovarian, 11.7 µM; in the experiment on A549 NSCLC, 20.3 µM. Further, the TGI is 13.7 µM with KM12 colon; 32.1 µM in the experiment on UACC-62 melanoma; 30.2 µM in the experiment on SK-MEL-28 melanoma; 25.8 µM in the experiment on MDA-MB-435; 32.8 µM in the experiment on NCI-H460 lung; 31.4 µM in the experiment with SW-620 colon. Further, the TGI was determined as 32.6 µM with HL-60(TB) leukemia, 29.3 µM in the experiment on M14 melanoma, 27.8 µM in the experiment on IGROV1 ovarian and 46.2 µM with A549 NSCLC.
Consider `COc1cc(/C=C2\SC(N3CCCCC3)=NC2=O)ccc1OCCCCCCOc1ccc(/C=C2\SC(N3CCCCC3)=NC2=O)cc1OC`, for which the GI50 was 11.1 µM in the experiment with KM12 colon; 16.1 µM in the experiment with UACC-62 melanoma; 15.7 µM in the experiment on SK-MEL-28 melanoma; 10.8 µM in the experiment on MDA-MB-435; 6.84 µM in the experiment on NCI-H460 lung; 14.9 µM in the experiment on SW-620 colon. Moreover, the GI50 in the experiment with HL-60(TB) leukemia is 14.6 µM; in the experiment with M14 melanoma, 21.9 µM; with IGROV1 ovarian, 11.1 µM; with A549 NSCLC it was 11.8 µM. In addition, the TGI with KM12 colon came to 25 µM; in the experiment on UACC-62 melanoma, 67.1 µM; with SK-MEL-28 melanoma it was 43.9 µM; in the experiment on MDA-MB-435, 79.1 µM; with NCI-H460 lung, 23.8 µM; in the experiment on SW-620 colon, 48.3 µM. In addition, the TGI was 84.4 µM with HL-60(TB) leukemia, over 100 µM in the experiment on M14 melanoma, 43 µM in the experiment on IGROV1 ovarian and 30.9 µM in the experiment with A549 NSCLC.
Consider `CNC(=O)OCc1nc(SC)n(C)c1COC(=O)NC`, for which the TGI is 380 µM in the experiment with KM12 colon; 103 µM with UACC-62 melanoma; 380 µM in the experiment with SK-MEL-28 melanoma; 327 µM with MDA-MB-435; 264 µM in the experiment with NCI-H460 lung; 685 µM in the experiment with SW-620 colon. Moreover, the TGI in the experiment on HL-60(TB) leukemia came to 262 µM; in the experiment with M14 melanoma it was 347 µM; in the experiment on IGROV1 ovarian, 531 µM; in the experiment with A549 NSCLC it was 836 µM.
Turning to `COc1ccccc1C(=O)N(Cc1ccccc1)c1ccc(Cl)c(C(=O)OC(C)C)c1`, the TGI in the experiment with KM12 colon was over 81 µM; with UACC-62 melanoma, over 100 µM; with SK-MEL-28 melanoma, over 100 µM; in the experiment on MDA-MB-435, over 100 µM; with NCI-H460 lung it was over 100 µM; with SW-620 colon, over 100 µM. Also, the TGI with HL-60(TB) leukemia is 43.6 µM; in the experiment with M14 melanoma, over 100 µM; with IGROV1 ovarian it was over 100 µM; with A549 NSCLC, over 100 µM.
With `CCOC1Oc2ccc(C)cc2C(=O)/C1=C\Nc1ccc(S(N)(=O)=O)cc1` (stereo unspecified), the GI50 is 12 µM in the experiment on KM12 colon; 12.5 µM in the experiment with UACC-62 melanoma; 14.5 µM in the experiment with SK-MEL-28 melanoma; 10 µM in the experiment on MDA-MB-435; 17 µM in the experiment with NCI-H460 lung; 15.3 µM in the experiment on SW-620 colon. Besides, the GI50 is 9.48 µM in the experiment on HL-60(TB) leukemia, 9.32 µM in the experiment on M14 melanoma, 15 µM in the experiment with IGROV1 ovarian and 13.9 µM in the experiment with A549 NSCLC. Moreover, the TGI in the experiment with KM12 colon was 32.5 µM; in the experiment with UACC-62 melanoma it was 38.2 µM; in the experiment on SK-MEL-28 melanoma, over 50 µM; in the experiment on MDA-MB-435, 23.8 µM; in the experiment with NCI-H460 lung, over 50 µM; with SW-620 colon, over 50 µM. In addition, the TGI in the experiment with HL-60(TB) leukemia was 27.4 µM; with M14 melanoma it was 21.5 µM; in the experiment on IGROV1 ovarian, over 50 µM; with A549 NSCLC it was over 50 µM.
As to `CC1OC(OC2C(O)C(O)C(O)C(O)C2O)C(N)CC1N=C(N)C(=O)O` (stereo unspecified), the TGI with KM12 colon, with UACC-62 melanoma, in the experiment with SK-MEL-28 melanoma, in the experiment on MDA-MB-435, in the experiment on NCI-H460 lung and with SW-620 colon was over 100 µM throughout. Further, the TGI with HL-60(TB) leukemia, with M14 melanoma, in the experiment with IGROV1 ovarian and with A549 NSCLC was over 100 µM each time.
For `CCOC(=O)/C(=C\c1ccc2ccccc2c1)P(=O)(OCC)OCC`, the GI50 in the experiment on KM12 colon was 3.08 µM; in the experiment on UACC-62 melanoma it was 2.33 µM; in the experiment with SK-MEL-28 melanoma it was 2.95 µM; in the experiment with MDA-MB-435, 2.92 µM; in the experiment with NCI-H460 lung, 2.71 µM; in the experiment on SW-620 colon, 2.81 µM. Besides, the GI50 in the experiment on HL-60(TB) leukemia was 2.15 µM; in the experiment on M14 melanoma, 2.18 µM; in the experiment on IGROV1 ovarian, 3 µM; in the experiment on A549 NSCLC it was 3.08 µM. Besides, the TGI in the experiment with KM12 colon was determined as 10.9 µM; with UACC-62 melanoma, 8.53 µM; with SK-MEL-28 melanoma, 8.06 µM; in the experiment on MDA-MB-435 it was 13.3 µM; in the experiment on NCI-H460 lung, 9.2 µM; in the experiment with SW-620 colon, 10.4 µM. Also, the TGI in the experiment on HL-60(TB) leukemia is 5.16 µM; in the experiment with M14 melanoma, 5.59 µM; in the experiment on IGROV1 ovarian, 8.94 µM; in the experiment on A549 NSCLC, 11.6 µM.
On to `COc1cccc(-c2nc3sccn3c2-c2ccnc(NCCCNS(=O)(=O)c3ccccc3)c2)c1`, for which the GI50 is 2.97 µM in the experiment with KM12 colon; 1.98 µM in the experiment on UACC-62 melanoma; 3.59 µM with SK-MEL-28 melanoma; 3.53 µM in the experiment on MDA-MB-435; 3.35 µM in the experiment with NCI-H460 lung; 3.81 µM in the experiment with SW-620 colon. Also, the GI50 with HL-60(TB) leukemia was 2.33 µM; in the experiment with M14 melanoma, 3.36 µM; in the experiment on IGROV1 ovarian it was 3.14 µM; in the experiment with A549 NSCLC, 3.45 µM. For the same molecule, the TGI with KM12 colon is over 100 µM; in the experiment on UACC-62 melanoma, 5.08 µM; in the experiment on SK-MEL-28 melanoma it was over 100 µM; in the experiment on MDA-MB-435 it was over 100 µM; in the experiment on NCI-H460 lung it was over 100 µM; in the experiment with SW-620 colon, over 100 µM. Besides, the TGI with HL-60(TB) leukemia is 5.63 µM; in the experiment on M14 melanoma it was over 100 µM; in the experiment on IGROV1 ovarian it was over 100 µM; in the experiment on A549 NSCLC it was over 100 µM.
`COc1cc(N(C)C)c(OC)cc1C=C1C=CC=C1`: the TGI in the experiment with KM12 colon, in the experiment on UACC-62 melanoma, with SK-MEL-28 melanoma, in the experiment with MDA-MB-435, in the experiment with NCI-H460 lung and in the experiment with SW-620 colon was over 100 µM in each case. Also, the TGI in the experiment on HL-60(TB) leukemia, in the experiment with M14 melanoma, in the experiment on IGROV1 ovarian and in the experiment with A549 NSCLC was over 100 µM each time.
On to `O=C(O)c1ccccc1NCn1c(=S)sc2ccccc21`, for which the TGI in the experiment on KM12 colon is over 100 µM; in the experiment with UACC-62 melanoma it was over 100 µM; with SK-MEL-28 melanoma, over 100 µM; in the experiment with MDA-MB-435, over 100 µM; in the experiment with NCI-H460 lung it was 48.5 µM; with SW-620 colon, over 100 µM. For the same molecule, the TGI in the experiment on HL-60(TB) leukemia was 38 µM; with M14 melanoma, over 100 µM; in the experiment on IGROV1 ovarian, over 100 µM; with A549 NSCLC, over 100 µM.
As to `O=c1[nH]cnc2n[nH]nc12`, the TGI in the experiment on KM12 colon was over 100 µM; in the experiment with UACC-62 melanoma it was 6.8 µM; in the experiment with SK-MEL-28 melanoma, over 61.6 µM; with MDA-MB-435, over 100 µM; in the experiment with NCI-H460 lung it was over 69.7 µM; in the experiment on SW-620 colon, over 100 µM. Also, the TGI in the experiment on HL-60(TB) leukemia is over 56.4 µM; with M14 melanoma, 30.8 µM; in the experiment with IGROV1 ovarian it was over 100 µM; in the experiment on A549 NSCLC it was over 100 µM. Besides, the GI50 in the experiment on MDA-MB-435 was 0.448 µM.
